Data published in patent publication EP0189629A1, “Method of treatment of viral diseases in plants utilizing ribavirin” (VIRATEK, INC., priority 1985, dated 1986).

Legend:
[1] = Solubility; assay type: physicochemical; details: for solubility in other solvents: alcohol (5-15% by volume) and water, DMF (5-25%) and water, DMSO (5-25%) and water, DMSO alone
Source text: Another potential use of Ribavirin is to eliminate viruses or maintain plant tissues in a virus-free state during routine propagation techniques that are presently being developed. One example is the use of encapsulated somatic embryos to propagate somatic tissues to prevent sexual variation or the need for more extensive plant breeding. Ribavirin may be especially useful in maintaining virus-free plants by its application to somatic embryos. Certain plants can be propagated asexually precluding genetic changes in progeny which might otherwise occur by sexual propagation from seed. Treatment of somatic embryos with Ribavirin prior to encapsulation will preserve plant progeny in a virus--free state. The compound could also be used in combination with newly developed plant genetic engineering procedures where the Ribavirin could be incorporated into normal propagation procedures. […] The compounds are also soluble in solutions of alcohol (5-15% by volume) and water, dimethylformamide (DMF) (5-25%) and water, dimethyl sulfoxide (DMSO) (5-25%) and water and dimethyl sulfoxide alone.

[2] = tested on: TMV; assay: TMV multiplication in leaf cells, treatment soon after inoculation; assay type: cell-based; details: treatment began soon after inoculation
[3] = tested on: TMV; assay: TMV multiplication in inoculated unorganized callus cells; assay type: cell-based; details: callus cells inoculated with TMV, single agent
[4] = tested on: TMV; assay: TMV-infected tobacco callus growth and shoot regeneration on medium containing chemical; assay type: cell-based
[5] = tested on: orchid strain of tobacco mosaic virus (TMV-0); assay: Cymbidium orchid tissue culture, virus titers by electron micrography and serological test; assay type: cell-based; details: 30, 100, 300 and 1,000 ppm Ribavirin; 200 ppm DMSO in all treatments
Experimental: Ribavirin concentrations from 30 to 1,000 ppm have been included in tissue culture media in which orchids are being cloned, and used to drench and spray whole orchid plants in a controlled way. Virus titers were determined by transmission electron micrography and ELIZA serological tests. In order to enhance penetration of Ribavirin, 200 ppm of Dimethylsulfoxide - (DMSO) was included in all treatments including controls.

[6] = tested on: lily symptomless virus (LSV) and tulip breaking virus (TBV); assay: Lily meristem culture, virus testing by ELISA, immuno-diffusion drop test and electron microscopy; assay type: cell-based; details: 40.0 uM Ribavirin
Experimental: Other experiments were performed with Lilium Lon- oifiorum "Arai" which has been described as difficult to obtain free of virus, and with Lilium"Enchantment", both containing lily symptomless virus (LSV) and tulip breaking virus (TBV). Meristems, induced on media with or without Ribavirin, were isolated and subsequently cultured on a medium without Ribavirin. […] Leaf samples of the plants were tested for the presence of LSV and TBV by means of ELISA, the immuno-diffusion drop test and electron microscopy.

[7] = tested on: protocorms of healthy Cymbidium; assay: Growth of healthy Cymbidium protocorms on medium containing Ribavirin; assay type: cell-based
Experimental: Meristems or protocorms of Cymbidium were cultured on liquid or solid (0.7% agar) KNUDSON C medium, as modified for orchids by MOREL.

[8] = tested on: potato virus Y; assay: In vitro culture of meristems and other explants of potato virus Y-infected potato; assay type: cell-based
Experimental: (§1) Although the proportion of healthy plants obtained by this technique is usually high, it requires complex media and the rate of regrowth of meristematic explants is low. Menstems were cultured on MURASHIGE and SKOOG medium- supplanted with vitamin 85, and with growth substances. Other explants (shoots, fragment of shoots, stem--fragments) were grown on MURASHIGE and SKOOG medium without addition of growth substances. The presence of potato virus Y in plant material was controlled before and after in vitro culture, by biological indexing on tobacco test plants, or by serology (ELISA). Results thus obtained confirmed the elimination of potato virus Y from infected plants by meristem culture. […] Cymbidium protocorms infected with odontoglossum ring spot virus were placed for proliferation on liquid KNUDSON C medium containing 0, 10, 25 or 40 ppm of Ribavirin.

[9] = tested on: Lilium; assay: Lily meristem culture, meristem formation and bulb growth; assay type: cell-based
[10] = tested on: plant virus groups; assay: Spectrum of activity against plant virus groups and plant viral diseases
[11] = tested on: Odontoglossum ring spot virus (ORSV); assay: ORSV-infected Cymbidium meristem/protocorm culture, ELISA; assay type: cell-based
Experimental: Odontoglossum ring spot virus (ORSV) - infected Cymbidium mother plants have been regenerated in the presence of Ribavirin. Meristems or protocorms of Cymbidium were cultured on liquid or solid (0.7% agar) KNUDSON C medium, as modified for orchids by MOREL.
as §1

With `CC(=O)OC[C@H]1O[C@@H](n2cnc(C(N)=O)n2)[C@H](OC(C)=O)[C@@H]1OC(C)=O` [2,3,5--triacetyl] the “solubility in other solvents” value [1] was “also soluble” and the solubility in water [1] was “soluble in water”.

With `CCCC(=O)OC[C@H]1O[C@@H](n2cnc(C(N)=O)n2)[C@H](O)[C@@H]1O` [5'-butyryl] the “solubility in other solvents” value [1] was “also soluble” and the solubility in water [1] was “soluble in water”.

For `Nc1ncnc2c1ncn2[C@@H]1O[C@H](CO)[C@@H](O)[C@@H]1O` [Adenine Arabinoside], the “multiplication of TMV in leaf cells” value [2] was “effectively inhibited” and the “multiplication of TMV in unorganized callus cells” value [3] was “neither inhibited”.

In the case of `NC(=O)c1ncn([C@@H]2O[C@H](CO)[C@@H](O)[C@H]2O)n1` [Ribavirin, 1-β-D-ribofuranosyl-1,2,4-triazole-3-carboxamide], the “TMV in newly developed tobacco callus or shoots” value ([4]; callus from TMV-infected pith tissue grown on medium with Ribavirin) is reported as “still contained TMV”, the “tobacco callus growth and differentiation” value ([4]; concentration twice that required to inhibit TMV multiplication in leaf disks) is reported as “grew and differentiated” and the “multiplication of TMV in leaf cells” value [2] is reported as “effectively inhibited”. The “virus status of new growth of Cymbidium tissue cultures” value [5] was “developed virus-free new growth”, the “percentage of plants infected with LSV and/or TBV” value ([6]; L. "Enchantment") was “the effect is less clear” and the “percentage of plants infected with LSV and/or TBV” value ([6]; L. Lonaiflorum "Arai") was “reduced”. The “growth of healthy Cymbidium protocorms” value ([7]; 50 ppm, after four weeks of culture) was “became necrotic”, the “growth of healthy Cymbidium protocorms” value ([7]; media containing 0, 10 or 25 ppm) was “grew well” and the “solubility in other solvents” value [1] was “also soluble”. For the same molecule, the solubility in water [1] was “soluble in water”, the “regeneration rate in meristem culture” value ([8]; 10, 25 and 50 ppm, meristems of potato virus Y-infected potato) was “enhanced the regeneration rate” and the “number of virus-free plants obtained after in vitro culture” value ([8]; 25 or 50 ppm, shoots, shoot pieces and stem-fragments, three to four weeks) was “significantly enhanced”. For the same molecule, the “phytotoxicity in meristem culture” value ([8]; virus-inhibiting concentrations, meristem culture of potato virus Y-infected potato) was “phytotoxicity at virus-inhibiting concentrations”, the bulb growth ([9]; 400.0 uM) was “severely reduced” and the “number of adventitiously formed meristems and average bulb weight” value ([9]; concentration range 0.0-40.0 uM) was “not significantly influenced”. The “effectiveness against plant viral diseases” value ([10]; crops and viruses listed in the 2nd table and the 3rd table) was “effective”, the “activity against plant virus groups” value ([10]; potexviruses, potyviruses, closteroviruses, tymoviruses, carlaviruses, cucumoviruses, ilarviruses, tombusviruses, tomato spotted wilt virus, alfalfa mosaic virus) was “active” and the “sensitivity of plant virus groups to Ribavirin” value ([10]; tobamovirus and bromovirus groups) was “only slightly sensitive”. The “multiplication of TMV in unorganized callus cells” value [3] was “neither inhibited”, the “multiplication of ORSV in Cymbidium protocorms” value ([11]; 10 ppm, liquid KNUDSON C medium, three monthly subcultures) was “did not inhibit” and the “virus concentration in Cymbidium protocorms” value ([11]; 25 ppm, liquid KNUDSON C medium, monthly subcultures) was “decreased progressively”. The “ORSV detection by ELISA test” value ([11]; from the sixth subculture, regeneration in the presence of Ribavirin) was “no longer detectible”.
